Assay results taken from the NIST ThermoML archive (doi:10.1016/j.tca.2016.08.006).
Where “and” joins values, the source holds several entries; their conditions need not be identical. Equal values may be shown once.

Columns and labels:
[1] = molar heat capacity at constant pressure; details: 101.33 kPa, Crystal, Vacuum adiabatic calorimetry
[2] = 101.33 kPa, Crystal, Vacuum adiabatic calorimetry

[S-2].[Zn+2] [zinc sulfide]
Details	molar entropy, [2] [J/K/mol]	molar heat capacity at constant pressure, [1]
1 K	3.1e-05	0.000119 J/K/mol
2 K	0.00031	0.000958 J/K/mol
4 K	0.002561	0.007765 J/K/mol
6 K	0.00879	0.02685 J/K/mol
8 K	0.0213	0.06618 J/K/mol
10 K	0.043	0.1376 J/K/mol
12 K	0.078	0.2601 J/K/mol
13.23 K	–	0.1984 J/K/mol
14 K	0.1317	0.4569 J/K/mol
16 K	0.2106	0.7475 J/K/mol
16.01 K	–	0.5445 J/K/mol
17.97 K	–	1.025 J/K/mol
18 K	0.3203	1.14 J/K/mol
19.61 K	–	1.553 J/K/mol
20 K	0.4649	1.628 J/K/mol
21.54 K	–	2.093 J/K/mol
23.46 K	–	2.68 J/K/mol
25 K	0.987	3.17 J/K/mol
25.99 K	–	3.508 J/K/mol
28.89 K	–	4.52 J/K/mol
30 K	1.72	4.941 J/K/mol
31.66 K	–	5.487 J/K/mol
34.78 K	–	6.6 J/K/mol
35 K	2.617	6.734 J/K/mol
37.93 K	–	7.702 J/K/mol
40 K	3.629	8.454 J/K/mol
41.05 K	–	8.761 J/K/mol
44.22 K	–	9.788 J/K/mol
45 K	4.72	10.08 J/K/mol
47.06 K	–	10.71 J/K/mol
50 K	5.863	11.63 J/K/mol
51.43 K	–	12.16 J/K/mol
53.49 K	–	12.83 J/K/mol
55 K	7.041	13.11 J/K/mol
55.51 K	–	13.31 J/K/mol
57.5 K	–	14 J/K/mol
59.41 K	–	14.51 J/K/mol
60 K	8.244	14.56 J/K/mol
61.72 K	–	15.17 J/K/mol
64.45 K	–	15.93 J/K/mol
65 K	9.466	15.99 J/K/mol
67.18 K	–	16.76 J/K/mol
69.7 K	–	17.39 J/K/mol
70 K	10.7	17.39 J/K/mol
72.52 K	–	18.2 J/K/mol
75 K	11.95	18.77 J/K/mol
75.26 K	–	18.97 J/K/mol
77.99 K	–	19.74 J/K/mol
80 K	13.2	20.13 J/K/mol
80.73 K	–	20.47 J/K/mol
83.59 K	–	21.24 J/K/mol
85 K	14.47	21.46 J/K/mol
86.48 K	–	22.17 J/K/mol
90 K	15.73	22.77 J/K/mol
91.62 K	–	23.27 J/K/mol
95 K	16.99	24.03 J/K/mol
95.13 K	–	24.19 J/K/mol
98.85 K	–	25.12 J/K/mol
100 K	18.26	25.25 J/K/mol
102.42 K	–	26.14 J/K/mol
106.06 K	–	26.79 J/K/mol
109.93 K	–	27.68 J/K/mol
110 K	20.77	27.55 J/K/mol
113.87 K	–	28.52 J/K/mol
117.79 K	–	29.35 J/K/mol
120 K	23.26	29.66 J/K/mol
121.86 K	–	30.17 J/K/mol
125.61 K	–	30.87 J/K/mol
129.43 K	–	31.59 J/K/mol
130 K	25.71	31.58 J/K/mol
133.29 K	–	32.28 J/K/mol
137.15 K	–	32.9 J/K/mol
140 K	28.12	33.3 J/K/mol
141.04 K	–	33.52 J/K/mol
144.93 K	–	34.17 J/K/mol
149.88 K	–	35.06 J/K/mol
150 K	30.47	34.85 J/K/mol
155.67 K	–	35.74 J/K/mol
159.17 K	–	36.12 J/K/mol
160 K	32.76	36.24 J/K/mol
164 K	–	36.77 J/K/mol
168.93 K	–	37.35 J/K/mol
170 K	35	37.49 J/K/mol
173.91 K	–	37.96 J/K/mol
178.77 K	–	38.48 J/K/mol
180 K	37.17	38.6 J/K/mol
184.05 K	–	38.9 J/K/mol
189.4 K	–	39.43 J/K/mol
190 K	39.29	39.6 J/K/mol
194.4 K	–	39.95 J/K/mol
199.39 K	–	40.39 J/K/mol
200 K	41.34	40.5 J/K/mol
204.53 K	–	40.77 J/K/mol
209.77 K	–	41.2 J/K/mol
210 K	43.34	41.32 J/K/mol
214.65 K	–	41.55 J/K/mol
219.66 K	–	41.93 J/K/mol
220 K	45.28	42.05 J/K/mol
224.69 K	–	42.27 J/K/mol
230 K	47.16	42.62 J/K/mol and 42.72 J/K/mol
235.27 K	–	42.91 J/K/mol
240 K	48.99	43.32 J/K/mol
240.27 K	–	43.24 J/K/mol
245.33 K	–	43.69 J/K/mol
250 K	50.77	43.88 J/K/mol
250.45 K	–	43.78 J/K/mol
258.21 K	–	44.25 J/K/mol
260 K	52.5	44.38 J/K/mol
263.65 K	–	44.4 J/K/mol
269.02 K	–	44.71 J/K/mol
270 K	54.19	44.84 J/K/mol
274.56 K	–	44.99 J/K/mol
280 K	55.83	45.27 J/K/mol
280.13 K	–	45.24 J/K/mol
285.72 K	–	45.48 J/K/mol
290 K	57.42	45.66 J/K/mol
291.19 K	–	45.73 J/K/mol
297.09 K	–	45.7 J/K/mol
300 K	58.98	46.03 J/K/mol
304.72 K	–	46.14 J/K/mol
310 K	60.49	46.36 J/K/mol
312.85 K	–	46.5 J/K/mol
320 K	61.97	46.68 J/K/mol
